Results published in patent publication US20030091533A1, “Regulation of mononuclear phagocyte stimulation” (priority 2001, published 2003).

Legend:
LPS-stimulated PBM [1] = test: Intracellular oxidative burst, DCFH oxidation assay, PBM; assay type: cell-based, human
Protocol: Intracellular oxidative capacity was assessed essentially as described by Bass et al., J. Immunol., 130:1910-1917 (1983) (incorporated herein by reference) as described infra.
Cells (0.2×10^6) were preincubated for 24 hour with IL-9 or IL-4 (20 ng/ml) in the presence of IFN-γ (200 U/ml) before stimulation for 20 hour with LPS (1 μg/ml). The intracellular oxidative capacity was measured through the DCFH oxidation assay as describe herein. FIG. 3 depicts the effect of IFN-γ on the inhibition mediated by IL-9 and IL-4 on the oxidative burst in LPS-stimulated PBM (A) and AM (B).
Table 1. Specific blockade of the IL-9 inhibitory effect on oxidative burst in LPS-15 stimulated PBM and AM by anti-hIL-9R mAb. Cells (0.2×10^6) were preincubated with neutralizing mAb against hIL-9R (AH9R7, 10 μg/ml), or with control mIgG2b (10 μg/ml), 1 hour before incubation with IL-9 (20 ng/ml) for 24 hour without removing mAb, and stimulated by LPS (1 μg/ml) for 20 h. Intracellular oxidative capacity was evaluated by the DCFH oxidation assay. Data are means±SEM obtained from three experiments, triplicate conditions being performed in each experiment. *P<0.001 compared with cells preincubated with IL-9 (with or without control mIgG2b).
Cells (0.2×10^6) were preincubated with neutralizing mAb, either against TGF-β1 (30 μg/ml) or against IL-10Rβ (30 μg/ml) or with control mIgG1 (30 μg/ml), 2 hour before incubation with IL-9 (20 ng/ml) for 24 hour without removing the mAb, and stimulated with LPS (1 μg/ml) for 20 h. Intracellular oxidative capacity was evaluated by the DCFH oxidation assay.
Intracellular oxidative capacity was assessed as described by Bass et al., (Bass et al., J. Immunol. 130:1910-1917 (1983)). Briefly, the PBM and AM samples were distributed in 96-well plates with flat bottoms (Falcon) to provide 0.2×10^6cells/well. The cells were preincubated for 24 hour at 37° C., 5% CO2 with cytokines (200 u/ml for IFN-y, 20 ng/ml for IL-9 and 20 ng/ml; for IL-4) in cRPMI before being stimulated for 20 hours with LPS (1 μg/ml) without removing the cytokines. At the end of incubation with cytokines and/or LPS, cells were loaded for 15 min with 15 μM DCFH-DA in cRPMI which, after passive penetration into cells, is hydrolyzed into nonfluorescent polar DCFH and trapped inside the cells. DCFH is then oxidized into highly fluorescent DCF according to the intracellular amount of hydrogen peroxide (H2O2) produced by the respiratory burst. After three washings with phosphate-buffered saline (PBS, pH 7.4), cells were lysed in 0.1% v/v Triton X100 (Sigma) in PBS, and fluorescence was quantified in a computerized microplate spectrofluorimeter (Packard Instruments, Downers Grove, Ill., USA) at 485 nm excitation/530 nm emission wavelengths. DCF concentrations were deduced from a standard curve of known concentrations of fluorescent DCF (ranging from 0.08 to 10 μM in lysis buffer) Results were corrected for total protein concentration determined in cell lysates by the bicinchoninic acid-based method (Pierce, Rockford, Ill., USA), and were expressed as nmoles DCF/mg cell protein.

ERK½ = ERK½ MAP kinase phosphorylation immunoblot in PBM; assay type: cell-based, human; conditions: pretreatment before LPS 1 μg/ml; IL-9 20 ng/ml 24 hour; PD98059 1 hour
Protocol: PBM, isolated as described infra, were treated with 100 !M PD98059 (or with the same volume of DMSO as control) 1 hour before preincubation for 24 hour with medium or IL-9 (20 ng/ml). For the phosphoERK immunoblot assay (A), PBM were then stimulated by LPS (1 μg/ml) for the indicated periods of time (5 min to 20 hours) as compared to unstimulated cells (med), and processed for the detection of phosphorylated and total ERK½ as described in infra. For the oxidative burst (B), PBM were stimulated by LPS (1 μg/ml) for 20 hour and their oxidative capacity was evaluated through DCFH oxidation The results are presented in FIG. 7.
PBM were preincubated for 24 hour with medium alone (med) or IL-9, IL-4 or TGF-β1 (20 ng/ml), and stimulated by LPS (1 μg/ml) for the indicated periods of time (30 to 240 min). […]
PBM (1×10^6) were preincubated for 24 hour with medium alone or with cytokines (IL-9, IL-4 or TGF-β1 at 20 ng/ml) and stimulated from 5 min to 20 hour by 1 μg/ml LPS. […] Cell extracts (10 μg, as determined by the bicinchoninic acid-based assay) were subjected to SDS-12%PAGE, and electrotransferred onto a nitrocellulose membrane (Amersham) immunoblotted to detect and compare phosphorylated (threonine^202/tyrosine^204 residues) and total ERK½, using specific antibodies and enhanced chemiluminescence (New England Biolabs). […]

PMA-stimulated PBM = test: Extracellular O2- release, SOD-inhibitable reduction of ferricytochrome c; assay type: cell-based, human; conditions: PMA as stimulus, preliminary experiments
Protocol: Extracellular release of O2-derived radicals was evaluated by the SOD-inhibitable reduction of ferricytochrome c, as previously described (Pick, Methods in Enzymology, 132:407-421 (1986)) as described infra.
Extracellular release of O2-derived radicals was evaluated by the SOD-inhibitable reduction of ferricytochrome c, as previously described (Pick, Methods in Enzymology, 132:407-421 (1986)). Briefly, after incubation with IL-9 and IL-4 (20 ng/ml) for 1 hour, 4 hour 24 hour and 96 hour, cells were washed three times in Hank's balanced salt solution without phenol red (HBSS) to remove the phenol red-containing medium and incubated at 37° C. with HBSS containing 160 μM ferricytochrome c (plus 300 IU/ml SOD as control for each condition), and concomittantly with 100 ng/ml PMA when indicated. Optical density (OD) at 550 nm was then recorded in a plate spectrometer (Titertek Multiscan Plus MKII, Labsystems, Finland) after 60 min. The released amount of superoxide anion (O2^−) was deduced from the absorbance values at 550 nm (after subtraction of control values with SOD) using the cytochrome c extinction coefficient of 21×10^3 M^−1 cm^−1 (See Massey, Biochim Biophys Acta, 34: 255(1959)). Results were expressed as nmoles O2^− per 10^6 cells per hour (FIG. 1).

LPS-stimulated PBM [2] = test: Intracellular oxidative burst, DCFH oxidation assay, PBM; assay type: cell-based, human; conditions: PMA as stimulus, preliminary experiments
surface of PBM and AM = test: IL-9 binding assay with hIL-9-mIgG3 chimeric molecule by FACS; set-up: species or system human; conditions: revealed by GAM3-FITC, compared with control
Protocol: To assess the IL-9 binding by PBM and AM, cells (0.2×10^6) were incubated with hIL-9-nIlgG3 chimeric protein and binding was assayed with GAM3-FITC. FIG. 4 is representative of five and three experiments for respectively IL-9R expression and IL-9 binding.
Binding of IL-9 to the surface of PBM and AM was assessed by incubating these cells (0.2×10^6) at 4° C. for 1 hour with hIL-9-mIgG3 chimeric molecule (10% COS cell supernatant). […] Cells incubated with mIgG3 before GAM3-FITC served as the negative control. FACS analysis of the cell-associated fluorescence was then performed as for the assessment of IL-9R expression.
Binding of IL-9 to the surface of PBM and AM was assessed by incubating these cells (0.2×10^6) at 4° C. for 1 hour with hIL-9-mIgG3 chimeric molecule (10%, v/v, COS cell supernatant). […] Cells incubated with mIgG3 before GAM3-FITC or only with GAM3-FITC served as negative controls. FACS analysis of the cell-associated fluorescence was then performed as for the assessment of IL-9R expression.

TGF-β1: monocyte/macrophage deactivating factor, 20 ng/ml
Oxidative burst (nmoles DCF/mg protein) (LPS-stimulated PBM [1]; Table 3, PBM, mAb 30 μg/ml 2 hour before IL-9 20 ng/ml 24 hour, LPS 1 μg/ml 20 h, means±SD, Medium 10.3 ± 0.2): 10.2 ± 0.5 nmoles DCF/mg protein | LPS-stimulated oxidative burst in PBM (LPS-stimulated PBM [1]; preincubation 24 hour with cytokine 20 ng/ml, then LPS 1 μg/ml 20 hour, without IFN-γ): 10.2±0.5 nmoles DCF/mg protein

COc1cccc(-c2cc(=O)c3ccccc3o2)c1N [PD98059, reference compound]
LPS-induced ERK½ phosphorylation in PBM (ERK½): prevented | effect on LPS-stimulated ROI production (oxidative burst) in monocytes (LPS-stimulated PBM [1]; PD98059 1 hour before preincubation, LPS 20 hour, DCFH oxidation): completely suppressed

CCCCCCCCCCCCCC(=O)O[C@@H]1[C@@H](C)[C@@]2(O)[C@@H](C=C(CO)C[C@]3(O)C(=O)C(C)=C[C@@H]23)[C@@H]2C(C)(C)[C@]12OC(C)=O [PMA, phorbol myristate acetate, reference compound]
cytochrome c reduction by PBM (PMA-stimulated PBM): strongly stimulated | DCFH oxidation by PBM (LPS-stimulated PBM [2]): only a minor effect

IL-9-mIgG3: human IL-9 fused to hinge, CH2 and CH3 domains of murine IgG3 heavy chain, COS cell supernatant
binding of IL-9 on the surface of AM (surface of PBM and AM): significant binding | binding of IL-9 on the surface of PBM (surface of PBM and AM): significant binding
